{
  "source": "paper PMC3095510",
  "about": "(Biomacromolecules, 2011)",
  "system": "anthrax lethal toxin (PA and LF), RAW264.7 cells",
  "note": "Ends that are not written are not given here.",
  "data": [
    {"sequence": "HTSTYWWLDGAP", "values": [
      {"measurement": "concentration up to which cytotoxicity was not inhibited", "value": "> 2000", "unit": "µM"}
    ]}
  ]
}
